Test results as given in ChEMBL document CHEMBL5120909, “Reshaping an Acyclic Nucleoside Phosphonate into a Selective Anti-hepatitis B Virus Compound” (J Med Chem, 2022).

Experiments:
[1] = test system: HepG2 2.2.15; test: Cytotoxicity against human HepG2.2.15 cells assessed as reduction in cell viability; type: functional
[2] = test system: Hepatitis B virus; test: Antiviral activity against wild type HBV infected in human HepG2 2.2.15 cells assessed as reduction in viral replication pre incubated for 3 days followed by replacement with fresh compounds for another 3 days prior to pronase treatment by RT-qPCR analysis; type: functional, organism-based, HepG2.2.15; conditions: for EC50: HepG2.2.15; for EC90: HepG2.2.15, 144 h, time 6 day
[3] = (§1) Selectivity index, ratio of CC50 for cytotoxicity against human HFF cells infected with VZV Ellen virus assessed as reduction in cell viability by cell titer-glo assay to EC50 for antiviral activity against VZV Ellen infected in HFF cells assessed as inhibition of virus-induced cytopathic effect measured after 14 days; type: toxicity, cell-based; conditions: read-out: Ratio CC50/EC50
[4] = (§2) Selectivity index, ratio of CC50 for cytotoxicity against human MT4 cells assessed as reduction in cell viability by MTT assay to EC50 for anti-HIV activity against wild type HIV-1 IIIB infected in human MT4 cells assessed as inhibition of HIV-induced cytopathic effect measured after 5 days by MTT assay; type: toxicity, cell-based; conditions: read-out: Ratio CC50/EC50
[5] = test system: HepG2 2.2.15; test: Cytotoxicity against human HepG2.2.15 cells assessed as reduction in cell viability by neutral red uptake assay; type: functional
[6] = test system: Human immunodeficiency virus 1; test: Anti-HIV activity against wild type HIV-1 IIIB infected in human MT4 cells assessed as inhibition of HIV-induced cytopathic effect measured after 5 days by MTT assay; type: functional, organism-based; conditions: Human immunodeficiency virus 1, IIIB, MT4, 120 h
[7] = test system: Human alphaherpesvirus 3; test: Antiviral activity against VZV Ellen infected in HFF cells assessed as reduction in viral replication measured after 14 days; type: functional, organism-based; conditions: Human alphaherpesvirus 3, Ellen, 336 h; for EC90: time 14 day
[8] = Cytotoxicity against human HFF cells infected with HCMV AD-169 virus assessed as reduction in cell viability by cell titer-glo assay; type: toxicity, cell-based
[9] = as §1, with “HCMV AD-169” for “VZV Ellen”; type: toxicity, cell-based; conditions: read-out: Ratio CC50/EC50
[10] = test system: Hepatitis B virus; test: Antiviral activity against wild type HBV infected in human HepG2 2.2.15 cells assessed as reduction in viral replication by DNA HYB (Vision)/neutral red (Tox) assay; type: functional, organism-based; conditions: HepG2.2.15
[11] = test system: Human immunodeficiency virus 2; test: Anti-HIV activity against wild type HIV-2 ROD infected in human MT4 cells assessed as inhibition of HIV-induced cytopathic effect measured after 5 days by MTT assay; type: functional, organism-based; conditions: Human immunodeficiency virus 2, ROD, MT4, 120 h
[12] = Selectivity index, ratio of CC50 cytotoxicity against human HepG2.2.15 cells assessed as reduction in cell viability to EC50 for antiviral activity against wild type HBV infected in human HepG2 2.2.15 cells assessed as reduction in viral replication by DNA HYB (RI)/neutral red (Tox) assay; type: toxicity, cell-based; conditions: read-out: Selectivity Index
[13] = Cytotoxicity against human MT4 cells assessed as reduction in cell viability by MTT assay; type: toxicity, cell-based
[14] = Cytotoxicity against human HFF cells infected with VZV Ellen virus assessed as reduction in cell viability by cell titer-glo assay; type: toxicity, cell-based
[15] = Selectivity index, ratio of CC50 cytotoxicity against human HepG2.2.15 cells assessed as reduction in cell viability to EC50 for antiviral activity against wild type HBV infected in human HepG2 2.2.15 cells assessed as reduction in viral replication by DNA HYB (Vision)/neutral red (Tox) assay; type: toxicity, cell-based; conditions: read-out: Selectivity Index
[16] = test system: Hepatitis B virus; test: Antiviral activity against wild type HBV infected in human HepG2 2.2.15 cells assessed as reduction in viral replication by DNA HYB (RI)/neutral red (Tox) assay; type: functional, organism-based; conditions: HepG2.2.15
[17] = as §2, with “HIV-2 ROD” for “HIV-1 IIIB”; type: toxicity, cell-based; conditions: read-out: Ratio CC50/EC50
[18] = test system: Human betaherpesvirus 5; test: Antiviral activity against HCMV AD-169 infected in HFF cells assessed as reduction in viral replication measured after 14 days; type: functional, organism-based; conditions: Human betaherpesvirus 5, AD-169, HFF, 336 h; for EC90: time 14 day
[19] = test system: HepG2 2.2.15; test: Cytotoxicity against human HepG2.2.15 cells assessed as reduction in cell viability incubated for 1 to 4 hrs by MTS uptake assay; type: functional; conditions: time 1-4 hrs
[20] = test system: Human betaherpesvirus 5; test: Antiviral activity against HCMV Davis infected in HEL cells assessed as reduction in virus plaque formation; type: functional, organism-based; conditions: Human betaherpesvirus 5, Davis
[21] = Cytotoxicity against human HEL cells assessed as change in cell morphology measured after 3 days […]; type: toxicity, cell-based; conditions: time 3 day
[22] = test system: Human alphaherpesvirus 3; test: Antiviral activity against VZV TK- infected in HEL cells assessed as reduction in virus plaque formation; type: functional, organism-based; conditions: Human alphaherpesvirus 3, TK-
[23] = test system: Human betaherpesvirus 5; test: Antiviral activity against HCMV AD-169 infected in HEL cells assessed as reduction in virus plaque formation; type: functional, organism-based; conditions: Human betaherpesvirus 5, AD-169, HEL
[24] = test system: Human alphaherpesvirus 3; test: Antiviral activity against VZV TK+ infected in HEL cells assessed as reduction in virus plaque formation; type: functional, organism-based; conditions: Human alphaherpesvirus 3, TK+

Compound: C#C[C@](CO)(Cn1cnc2c(=O)[nH]c(N)nc21)OCP(=O)(O)O
- CC50 [1]: > 100 µM
- EC50 [2]: 0.497 µM

Compound: C#CC(CO)(Cn1cnc2c(=O)[nH]c(N)nc21)OCP(=O)(O)O (stereo not drawn)
- selectivity ratio at 336 h [3]: > 1
- selectivity ratio at 120 h [4]: > 97
- CC50 [1]: > 100 µM
- CC50 [5]: > 100 µM
- EC50 [6]: 3.73 µM
- EC50 [7]: 116 µM
- EC90 [7]: > 150 µM
- CC50 [8]: > 150 µM
- EC50 [2]: 0.37 µM
- EC90 [2]: 0.83 µM
- selectivity ratio at 336 h [9]: > 10
- EC50 [10]: 0.31 µM
- EC90 [10]: 0.8 µM
- EC50 [11]: 1.28 µM
- selectivity ratio [12]: > 185
- CC50 [13]: > 364 µM
- CC50 [14]: > 150 µM
- selectivity ratio [15]: > 322
- EC50 [16]: 0.54 µM
- EC90 [16]: 1.8 µM
- selectivity ratio at 120 h [17]: > 287
- EC50 [18]: 14.4 µM
- EC90 [18]: > 150 µM

Compound: C#C[C@@](CO)(Cn1cnc2c(=O)[nH]c(N)nc21)OCP(=O)(N[C@@H](Cc1ccccc1)C(=O)OCCC)N[C@@H](Cc1ccccc1)C(=O)OCCC
- CC50 [1]: > 100 µM
- EC50 [2]: 0.00927 µM

Compound: C[C@](CO)(Cn1cnc2c(=O)[nH]c(N)nc21)OCP(=O)(O)O
- CC50 [1]: > 100 µM
- EC50 [2]: 0.335 µM

Compound: C[C@@](CO)(Cn1cnc2c(=O)[nH]c(N)nc21)OCP(=O)(O)O
- CC50 [1]: > 100 µM
- EC50 [2]: 0.0423 µM

Compound: C#C[C@@](CO)(Cn1cnc2c(=O)[nH]c(N)nc21)OCP(=O)(O)O
- CC50 [1]: > 100 µM
- EC50 [2]: 0.0187 µM

Compound: C#CC(CO)(Cn1ccc(N)nc1=O)OCP(=O)(O)O (racemic)
- selectivity ratio at 336 h [3]: > 10
- selectivity ratio at 120 h [4]: 1
- CC50 [5]: > 100 µM
- EC50 [6]: > 412 µM
- EC50 [7]: 15.4 µM
- EC90 [7]: > 150 µM
- CC50 [8]: 132 µM
- EC50 [2]: > 100 µM
- EC90 [2]: > 100 µM
- selectivity ratio at 336 h [9]: < 4
- EC50 [11]: > 412 µM
- CC50 [13]: > 412 µM
- CC50 [14]: > 150 µM
- selectivity ratio at 120 h [17]: 1
- EC50 [18]: 30 µM
- EC90 [18]: > 30 µM

Compound: Cc1cn(CC(C)(CO)OCP(=O)(O)O)c(=O)[nH]c1=O (racemic)
- selectivity ratio at 120 h [4]: 1
- EC50 [6]: > 406 µM
- CC50 [19]: > 100 µM
- EC50 [20]: > 324 µM
- MCC at 72 h [21]: > 324 µM
- EC50 [2]: > 100 µM
- EC90 [2]: > 100 µM
- EC50 [22]: 253 µM
- EC50 [23]: > 324 µM
- EC50 [11]: > 406 µM
- EC50 [24]: > 324 µM
- CC50 [13]: > 406 µM
- selectivity ratio at 120 h [17]: 1

Compound: C#CC(CO)(Cn1cnc2c(N)ncnc21)OCP(=O)(O)O (racemic)
- selectivity ratio at 336 h [3]: < 4
- selectivity ratio at 120 h [4]: > 14
- CC50 [5]: > 100 µM
- EC50 [6]: 26.6 µM
- EC50 [7]: > 30 µM
- EC90 [7]: > 30 µM
- CC50 [8]: 145 µM
- EC50 [2]: 25 µM
- EC90 [2]: 62 µM
- selectivity ratio at 336 h [9]: < 5
- EC50 [11]: 18 µM
- CC50 [13]: > 382 µM
- CC50 [14]: 131 µM
- selectivity ratio at 120 h [17]: > 21
- EC50 [18]: 30 µM
- EC90 [18]: > 30 µM
